In US7964591B2, “Pyridazine derivatives and their use as therapeutic agents” (Novartis Pharma AG, priority 2003, dated 2011):
Marks after values point to notes of the source that are not given here.

Key:
Type in all cases: in vivo, female Crl:NMRI mice
sebaceous glands [1] = assay: Topical LCF369 on sebaceous glands of NMRI mice: minimal treatment period; conditions: for mean size decrease: 1.0% LCF369 twice daily, vs vehicle
Procedure: (§1) LCF369 is prepared either in a solution of ethanol/propylene glycol (3/7, v/v) or in topical formulations at 1.0, 0.5 or 0.1% for testing in female Crl:NMRI mice. In general, shaved application sites of approximately 2.5 cm^2 on the back of mice are treated twice daily (once on weekends or at study termination) with 50 μl of the LCF369 preparations. To prevent the animals from potential oral uptake of the epicutaneously applied compounds, they are fitted with ruffs and housed individually. After the last application, the animals are euthanised; the treated sites dissected and prepared for histological sections. Hematoxilin/eosin (HE)-stained 3 μm-thick sections are prepared from formalin-fixed, paraffin-embedded tissue. From each animal, one HE-stained section per site is histomorphometrically examined. The entire sections of approximately 10 mm length are evaluated microscopically (200×) for sebaceous glands. The mean size and mean number (per mm^2 dermis) of sectioned alveolar units of the sebaceous glands are determined in a coded fashion with an image analyzer (Axiovision, Zeiss). For statistical analysis, morphometric data are analyzed with a T-test or Mann-Whitney rank sum test. Frozen tissue sections (5 μm) are used for oil red O (lipid) staining.
Groups of 4 mice are treated with 1.0% LCF369 twice daily for 2, 4, 6 and 8 days (i.e. up to 16 applications). Control groups remain untreated or are treated with the vehicle alone twice daily for 8 days.

sebaceous glands [2] = assay: Topical LCF369 on sebaceous glands of NMRI mice: minimal effective concentration; conditions: LCF369 1.0% (w/v) twice daily, 7 days, mean (SD), 6 animals
Procedure: as §1
LCF369 is tested at 1.0%, 0.5% and 0.1%, groups of 6 mice are treated twice daily for 7 consecutive days. […]

sebaceous glands [3] = assay: Topical LCF369 on sebaceous glands of NMRI mice: duration of action
Procedure: as §1, with “From each animal, one HE-stained section per site is histomorphometrically examined.” left out, “Frozen tissue sections (5 μm) are used for oil red O (lipid) staining.” left out
A 7-day b.i.d. (twice daily) treatment schedule (except on week ends when the animals were treated once daily) with 1.0% LCF369 is applied to groups of 7 mice which are evaluated on days 8 (one day after the 14th application), 24 and 41. […]

sebaceous glands [4] = assay: Topical LCF369 on sebaceous glands of NMRI mice: clinical service form candidates (0.5% formulations)
Procedure: as §1, with “Hematoxilin/eosin (HE)-stained 3 μm-thick sections are prepared from formalin-fixed, paraffin-embedded tissue. From each animal, one HE-stained section per site is histomorphometrically examined.” left out, “Frozen tissue sections (5 μm) are used for oil red O (lipid) staining.” left out
Three different formulations containing 0.5% LCF369 are tested; i) emulsion gel with the penetration enhancer Sepa 09 (batch 92.66.01-ra), ii) emulsion gel without a penetration enhancer (batch 9450-05-Ra), and iii) a formulation containing particulate compound (“follicular targeting formulation”). They are evaluated after 9 or 13 applications.

sebaceous glands [5] = assay: Topical LCF369 on sebaceous glands of NMRI mice: evaluation of efficacy
Procedure: as §1
Groups of 5 mice are treated with 50 μl of 1% or 0.1% LCF369 twice daily (except on weekends, when the animals are treated once daily and on study termination) for 8 days (i.e. 14 applications in total). Four control animals are treated similarly with the vehicle alone. In life, the animals are observed for clinical signs and macroscopic changes of the application sites. One day after the last application, an evaluation is performed. In animals treated with 1.0% LCF369, untreated skin samples distant from the treated sites are also collected in order to assess systemic activity due to percutaneous absorption of LCF369.

[6] = LCF369-treated vs vehicle-treated skin

Compound: O=C(NCCC1CC1)c1ccc(N2CCN(C(=O)c3cc(F)ccc3C(F)(F)F)CC2)nn1 [LCF369, 6-[4-(5-Fluoro-2-trifluoromethylbenzoyl)piperazin-1-yl]pyridazine-3-carboxylic acid (2-cyclopropylethyl)amide]
- mean size decrease (sebaceous glands [1]; after 4 days): 35%
- mean size decrease (sebaceous glands [1]; after 6 days): 35%
- mean size decrease (sebaceous glands [1]; after 8 days): 72%
- Maximum reduction in sizes and numbers of sebaceous glands (sebaceous glands [1]; topical application, compared to untreated skin): up to 75%
- Number of sebaceous glandular units (sebaceous glands [2]): 10.1 (4.0)*** per mm^2 dermis
- atrophogenic effect from LCF369 treatment (sebaceous glands [3]; 1% LCF369, on day 24): substantially reduced
- atrophogenic effect from LCF369 treatment (sebaceous glands [3]; 1% LCF369, on day 41): almost completely absent
- hyper/parakeratosis and acanthosis in skin sections (sebaceous glands [4]; 0.5% LCF369 formulation containing SEPA-9 vs placebo-treated (vehicle-treated) samples): more pronounced
- effect on sebaceous glands (sebaceous glands [4]; 0.5% LCF369 formulation containing penetration enhancer SEPA-9): significant atrophy of sebaceous glands
- atrophogenic effects (sebaceous glands [5]; 0.1% LCF369, 8 days): little or no atrophogenic effects
- reduction of sebaceous glands in sizes (fold) (sebaceous glands [5]; 1.0% LCF369, 8 days, p<0.01): about 1.9 fold
- differences in numbers and sizes of sebaceous glands at sites distant from the treatments (sebaceous glands [5]; 1.0% LCF369, distant sites): no significant differences
- histochemical (HE) staining of treated skin, FIG. 2B (sebaceous glands [5]; [6]): fewer and smaller (atrophic) sebaceous glands
- oil red O (lipid) staining of treated skin, FIG. 3B (sebaceous glands [5]; [6]): significantly reduced lipids associated with hair shafts
